From PubChem BioAssay AID2045 (NMMLSC, 2009)

Biological target: Ras-related protein Rab-2A (Canis lupus familiaris) (UniProt P61105)
Test: Rab2A fluorescent GTP competition potency – biochemical, pyrazoline series, Bodipy-FL-GTP, flow cytometry, multiplex, SAR follow-up (AID 2045)
Conditions: Bead-based flow cytometry, Bodipy-FL-GTP binding to Rab2; Ki calculated from EC50

Sequence of Ras-related protein Rab-2A (Canis lupus familiaris) (P61105 whole entry, looked up): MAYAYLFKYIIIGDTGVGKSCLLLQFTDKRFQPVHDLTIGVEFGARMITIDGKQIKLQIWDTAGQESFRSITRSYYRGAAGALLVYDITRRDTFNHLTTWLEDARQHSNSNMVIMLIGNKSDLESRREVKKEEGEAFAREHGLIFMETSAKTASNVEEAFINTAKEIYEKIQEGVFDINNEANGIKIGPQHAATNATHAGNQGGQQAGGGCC

Ki [nM]	Compound
110	COc1ccc(C2=NN(c3ccc(S(N)(=O)=O)cc3)C(c3ccc(OC)cc3)C2)cc1 (configuration not stated)
60	COc1ccc(C2=NN(c3cccc(F)c3)C(c3ccc(OC)cc3)C2)cc1 (configuration not stated)
